Values of other authors as cited in patent publication EP0097942A1, “Antiallergic pyrazine-bis(2-oxoglycine) compounds” (THE DOW CHEMICAL COMPANY, priority 1982, dated 1984).
Like-named read-outs stand apart in the source and are kept apart here.

Tested on: PCA reactions
Details: general statement on reference drug

For `O=C(O)c1cc(=O)c2c(OCC(O)COc3cccc4oc(C(=O)O)cc(=O)c34)cccc2o1` [Disodium cromoglycate], the “activity in PCA test” value (administered i.p.) is listed as “active” and the “activity in PCA test” value (administered orally) is listed as “not orally”.
